# From patent US5098933A, “Pharmaceutically useful Michael addition products of unsaturated aldehydes and ketones and ascorbic acid” (Theracel Corporation, priority 1990, dated 1992)
# How the values were obtained:
# splenocytes = assay: Immunotoxicity--Multi-dose: total spleen cell counts (Coulter Counter); format: in vivo, mice
# Method: (§1) The immunotoxicological potential of KCPBL was evaluated in this experiment in which the study drug was administered to CD-1 mice for fourteen days (100 or 1000 mg/kg/day), either perorally (by gavage) or intravenously (tail vein). On the fifteenth day, the mice were weighed and sacrificed. The spleen, lungs, liver, kidneys and thymus were removed from each animal, fixed in formalin and histopathologically evaluated. In addition, a differential white blood cell count was obtained for a peripheral blood sample as well as the following tests performed: spleen cell counts (performed with Coulter Counter) and lymphocyte stimulation assays using PHA, CON-A and PWM techniques.
# (§2) The study incorporated five treatment groups into its design: group 1, sham intravenous control; group 2, 100 mg/kg/day perorally; group 3, 1000 mg/kg/day intravenously; group 4, 100 mg/kg/day perorally, and, group 5, 100 mg/kg/day intravenously. Mice were administered KCPBL daily for a total of fourteen days via the oral (0.2 ml of a 147.5 mg/ml solution or a 29.5 mg/ml solution by gavage) and intravenous route (0.2 ml of 147.5 mg/ml solution or a 29.5 mg/ml solution by tail vein) to achieve a dose of 100 or 1000 mg/kg, respectively. The test dose was prepared fresh daily and dissolved in sterile non-pyrogenic saline. On the fifteenth day the mice were weighed, sacrificed, and the spleens, lungs, livers, kidneys and thymuses removed. These organs were weighed and, except for the spleens, the formalin-fixed organs were analyzed by a veterinary pathologist. Only two randomly-selected sets of animal organs per treatment group were histopathologically evaluated since the remaining three animals were used to isolate splenic lymphocytes for use in cellular immunoassays.
# (§3) A leukocyte differential was obtained on peripheral blood samples and spleen cell counts (performed with Coulter Counter), and an IL-2 induction assessment as well as standard lymphocyte stimulation assays using PHA, CON-A and PWM conducted.
# splenic lymphocytes = assay: Immunotoxicity--Multi-dose: lymphocyte blastogenesis / stimulation (PHA, Con A, PWM); format: in vivo, mice
# Method: as §1
# as §2, with “The study incorporated five treatment groups into its design: group 1, sham intravenous control; group 2, 100 mg/kg/day perorally; group 3, 1000 mg/kg/day intravenously; group 4, 100 mg/kg/day perorally, and, group 5, 100 mg/kg/day intravenously.” left out
# as §3
# The individual spleens of three mice from control and test groups were processed to isolate lymphocytes and the protocols for lymphocyte blastogenesis, IL-2 induction and assay were performed. The remaining two mice in each group were sacrificed and their lungs, liver, kidney, and spleen were fixed in formalin and sent to AnMed Biosafe for histopathologic examination.
# [1] = Tissue biodistribution of 3H-KCPBL in mice; format: in vivo; conditions: for Biodistribution, Bone / Biodistribution, Brain / Biodistribution, Heart / Biodistribution, Kidney / Biodistribution, Large Intestine / Biodistribution, Liver / Biodistribution, Lung / Biodistribution, Muscle / Biodistribution, Small Intestine / Biodistribution, Spleen / Biodistribution, Stomach: 100 mg/kg
# Method: The objectives of these tests were to evaluate the pharmacokinetics of radiolabeled KCPBL when administered either perorally or intravenously to mice.
# 3H-KCPBL was prepared from the pure drug substance KCPBL by an exchange procedure using high specific activity tritiated water. The product was purified by reverse phase high performance liquid chromatography and then freeze-dried. Analysis was carried out on ^3 H-KCPBL reconstituted in water. Specific activity was not less than 185 GBg/mmol or 5 Ci/mmol and the molecular weight of the product is 258. HPLC analysis for purity was performed using a Zorbax C8 column (25 cm×4.6) eluting with water: acetonitrile (930:70).
# In the mouse studies, 3H-KCPBL was dissolved in sterile pyrogen-free saline containing […] of non-radiolabeled KCPBL. The final concentration of the test article in an injection volume of 0.1 ml was 66.6 mcCi. One tenth ml was administered intravenously for plasma level and tissue biodistribution studies. Peroral dosages were prepared in a manner consistent with this approach.
# Tissue samples were collected and assayed as described above. The tissues evaluated for KCPBL content at four and at 24 hours after test article administration were: heart, lung, kidney, liver spleen, muscle, bond, stomach, small intestine, large intestine and brain.
structure (smiles),measurement,setting,value
O=C1CCC(C2(O)C(=O)OC3C(O)COC32O)C1 (stereo not shown) [KCPBL],Total Splenocytes,splenocytes; 100 mg/kg IV (group 5),4.03 ± 0.33 × 10^7 Cells
same,Total Splenocytes,splenocytes; 100 mg/kg P.O. (group 4),4.15 ± 0.18 × 10^7 Cells
same,Total Splenocytes,splenocytes; 1000 mg/kg IV (group 3),3.12 ± 0.67 × 10^7 Cells
same,Total Splenocytes,splenocytes; 1000 mg/kg P.O. (group 2),3.73 ± 0.30 × 10^7 Cells
same,"total spleen cell counts, significance",splenocytes; treated vs control,not statistically significantly different
same,"Lymphocyte Blastogenesis, Con A",splenic lymphocytes; 100 mg/kg IV (group 5),17292 ± 3202
same,"Lymphocyte Blastogenesis, PHA",splenic lymphocytes; 100 mg/kg IV (group 5),8513 ± 3950
same,"Lymphocyte Blastogenesis, PWM",splenic lymphocytes; 100 mg/kg IV (group 5),7125 ± 3899
same,"Lymphocyte Blastogenesis, RPMI",splenic lymphocytes; 100 mg/kg IV (group 5),234 ± 116
same,"Lymphocyte Blastogenesis, Con A",splenic lymphocytes; 100 mg/kg P.O. (group 4),18948 ± 3543
same,"Lymphocyte Blastogenesis, PHA",splenic lymphocytes; 100 mg/kg P.O. (group 4),13432 ± 4075
same,"Lymphocyte Blastogenesis, PWM",splenic lymphocytes; 100 mg/kg P.O. (group 4),6733 ± 1181
same,"Lymphocyte Blastogenesis, RPMI",splenic lymphocytes; 100 mg/kg P.O. (group 4),307 ± 52
same,"Lymphocyte Blastogenesis, Con A",splenic lymphocytes; 1000 mg/kg IV (group 3),14471 ± 2913
same,"Lymphocyte Blastogenesis, PHA",splenic lymphocytes; 1000 mg/kg IV (group 3),4473 ± 1181
same,"Lymphocyte Blastogenesis, PWM",splenic lymphocytes; 1000 mg/kg IV (group 3),4402 ± 3641
same,"Lymphocyte Blastogenesis, RPMI",splenic lymphocytes; 1000 mg/kg IV (group 3),203 ± 122
same,"Lymphocyte Blastogenesis, Con A",splenic lymphocytes; 1000 mg/kg P.O. (group 2),15151 ± 627
same,"Lymphocyte Blastogenesis, PHA",splenic lymphocytes; 1000 mg/kg P.O. (group 2),8189 ± 1602
same,"Lymphocyte Blastogenesis, PWM",splenic lymphocytes; 1000 mg/kg P.O. (group 2),4896 ± 1547
same,"Lymphocyte Blastogenesis, RPMI",splenic lymphocytes; 1000 mg/kg P.O. (group 2),244 ± 97
same,"LSA response to PHA, CON-A and PWM lectins",splenic lymphocytes; treated vs sham-injected controls,comparable
same,tissues with highest drug levels,"[1]; 4 h, intravenous","liver, gastrointestinal tract, and brain"
same,tissues with highest drug levels,"[1]; 4 h, peroral",principally found in the kidneys and the gastrointestinal tract
same,tissues with highest drug levels,"[1]; 24 h, intravenous",muscle and brain demonstrated the highest levels
same,tissues with highest drug levels,"[1]; 24 h, peroral",the highest drug levels were found in muscle and brain
same,"Biodistribution, Bone","[1]; intravenous, 4 hour",12.77 ± 3.96 mcg/gm
same,"Biodistribution, Brain","[1]; intravenous, 4 hour",38.60 ± 16.90 mcg/gm
same,"Biodistribution, Heart","[1]; intravenous, 4 hour",10.45 ± 3.50 mcg/gm
same,"Biodistribution, Kidney","[1]; intravenous, 4 hour",11.72 ± 1.34 mcg/gm
same,"Biodistribution, Large Intestine","[1]; intravenous, 4 hour",65.57 ± 14.86 mcg/gm
same,"Biodistribution, Liver","[1]; intravenous, 4 hour",21.20 ± 4.78 mcg/gm
same,"Biodistribution, Lung","[1]; intravenous, 4 hour",2.60 ± 2.20 mcg/gm
same,"Biodistribution, Muscle","[1]; intravenous, 4 hour",31.97 ± 6.09 mcg/gm
same,"Biodistribution, Small Intestine","[1]; intravenous, 4 hour",58.50 ± 18.68 mcg/gm
same,"Biodistribution, Spleen","[1]; intravenous, 4 hour",0.95 ± 0.36 mcg/gm
same,"Biodistribution, Stomach","[1]; intravenous, 4 hour",23.79 ± 5.96 mcg/gm
same,"Biodistribution, Bone","[1]; intravenous, 24 hour",4.53 ± 0.86 mcg/gm
same,"Biodistribution, Brain","[1]; intravenous, 24 hour",34.80 ± 20.5 mcg/gm
same,"Biodistribution, Heart","[1]; intravenous, 24 hour",2.85 ± 1.23 mcg/gm
same,"Biodistribution, Kidney","[1]; intravenous, 24 hour",5.35 ± 3.66 mcg/gm
same,"Biodistribution, Large Intestine","[1]; intravenous, 24 hour",13.67 ± 9.3 mcg/gm
same,"Biodistribution, Lung","[1]; intravenous, 24 hour",1.32 ± 0.46 mcg/gm
same,"Biodistribution, Muscle","[1]; intravenous, 24 hour",120.90 ± 154.0 mcg/gm
same,"Biodistribution, Small Intestine","[1]; intravenous, 24 hour",9.62 ± 6.4 mcg/gm
same,"Biodistribution, Spleen","[1]; intravenous, 24 hour",0.71 ± 0.23 mcg/gm
same,"Biodistribution, Stomach","[1]; intravenous, 24 hour",10.36 ± 5.8 mcg/gm
same,"Biodistribution, Liver","[1]; intravenous, 24 hour, SD: data not available",25.7 mcg/gm
same,"Biodistribution, Bone","[1]; peroral, 4 hour",15.02 ± 13.6 mcg/gm
same,"Biodistribution, Brain","[1]; peroral, 4 hour",35.22 ± 1.64 mcg/gm
same,"Biodistribution, Heart","[1]; peroral, 4 hour",13.64 ± 4.98 mcg/gm
same,"Biodistribution, Kidney","[1]; peroral, 4 hour",63.57 ± 74.0 mcg/gm
same,"Biodistribution, Large Intestine","[1]; peroral, 4 hour",135.9 ± 32.5 mcg/gm
same,"Biodistribution, Liver","[1]; peroral, 4 hour",38.03 ± 5.0 mcg/gm
same,"Biodistribution, Lung","[1]; peroral, 4 hour",2.72 ± 0.38 mcg/gm
same,"Biodistribution, Muscle","[1]; peroral, 4 hour",40.81 ± 3.37 mcg/gm
same,"Biodistribution, Small Intestine","[1]; peroral, 4 hour",217.50 ± 267.6 mcg/gm
same,"Biodistribution, Spleen","[1]; peroral, 4 hour",1.73 ± 0.29 mcg/gm
same,"Biodistribution, Stomach","[1]; peroral, 4 hour",110.00 ± 118.0 mcg/gm
same,"Biodistribution, Bone","[1]; peroral, 24 hour",10.30 ± 4.72 mcg/gm
same,"Biodistribution, Brain","[1]; peroral, 24 hour",47.30 ± 33.0 mcg/gm
same,"Biodistribution, Heart","[1]; peroral, 24 hour",5.13 ± 3.37 mcg/gm
same,"Biodistribution, Kidney","[1]; peroral, 24 hour",10.28 ± 5.58 mcg/gm
same,"Biodistribution, Large Intestine","[1]; peroral, 24 hour",21.42 ± 4.39 mcg/gm
same,"Biodistribution, Liver","[1]; peroral, 24 hour",11.84 ± 9.58 mcg/gm
same,"Biodistribution, Lung","[1]; peroral, 24 hour",3.73 ± 3.49 mcg/gm
same,"Biodistribution, Muscle","[1]; peroral, 24 hour",188.5 ± 124.0 mcg/gm
same,"Biodistribution, Small Intestine","[1]; peroral, 24 hour",24.45 ± 5.3 mcg/gm
same,"Biodistribution, Spleen","[1]; peroral, 24 hour",1.71 ± 0.16 mcg/gm
same,"Biodistribution, Stomach","[1]; peroral, 24 hour",25.72 ± 15.0 mcg/gm
